The values that follow come from patent US6800750B1, “Mc1-1 gene regulatory elements and a pro-apoptotic mc1-1 variant” (Dartmouth College, priority 1999, dated 2004).

Read-outs that look alike come from different tables or passages of the source.

Assay [1] concerns human Mcl-1 5′-flanking sequence. As to the kind of experiment: Transient luciferase expression assay of Mcl-1 reporter plasmids in K-562 cells. Type of assay: cell-based. From the text:
A 1.7 kilobase (kb) XbaI/XmaI human Mcl-1 genomic fragment representing nucleotide residues −1656 to +160, where +1 denotes the major transcriptional start site, along with a 14 base pair (bp) adapter ligated to its 3′ end to place the luciferase gene in the correct reading frame, was inserted into NheI and HindIII digested pGL2-Basic luciferase reporter vector (Promega; Madison Wis.), yielding p(−1656)Mcl-1luc.
A series of 5′-deleted plasmids were constructed by double digestion of p(−1656)Mcl-1luc with SmaI, which cuts just upstream of the Mcl-1 insert, and restriction enzymes known to cut at unique sites within the Mcl-1 insert. […] Additional plasmids were constructed using PCR, including p(−107)Mcl-1luc, p(−51)Mcl-1luc, and p(+11)Mcl-1luc; the PCR products were sequenced to confirm their identity.
Specific mutations were introduced into the p(−162)Mcl-1luc plasmid using a two stage PCR method of Chen and Boxer (supra, 1995). The Ets site at nucleotides −129 to −121 was converted from CCGGAAGC (SEQ ID NO: 4) to CCTTAAGC (SEQ ID NO: 5;ΔEts); the Sp1 site at nucleotides −118 to −113 was converted from CCGCCC (SEQ ID NO: 6) to CTGACC (SEQ ID NO: 7;ΔSp1); and the SRE at nucleotides −106 to −97 was converted from CCTTTTATGG (SEQ ID NO:8) to CCTTCGGCTG (SEQ ID NO: 9;ΔSRE); altered nucleotides are indicated in bold type. All mutations were verified by sequencing. The PCR products containing the desired mutations were digested with BstEII and EcoRI, and ligated into the p(−162)Mcl-1luc plasmid, which had been digested with the same enzymes.
Electroporation was carried out with K-562 cells using the following protocol, which was based on preliminary experiments aimed at optimizing luciferase activity. Cells were washed twice and resuspended in PBS (5×10^6 cells in 0.5 ml) in the presence of 10 μg luciferase reporter plasmid, along with the pCMVhGH internal control plasmid used in most experiments (10 μg). After incubation on ice for 10 min, cells were electroporated (960 μF and 280 V; Bio-Rad Gene Pulser; Hercules Calif.), placed on ice for 15 min, then incubated at 37° C. (1×10^5 cells/ml) in Iscove's Modified Dulbecco's medium supplemented with 10% FBS, 100 units/ml penicillin, and 100 μg/ml streptomycin. After 17 hr, the cell suspension was divided into two portions, one of which was left untreated and the other of which was exposed to 1.7×10^−9 M TPA, which increased Mcl-1 expression in K-562 cells in a manner equivalent to that observed with 5×10^−10 TPA in ML-1 cells (Pahl et al., Expt. Hematol. 19:1038-1041 (1991), which is incorporated herein by reference). After 7 hr of exposure to TPA, when induction was at or near a peak level, cells were washed with PBS, then assayed in triplicate for luciferase activity (relative light units; Brasier et al., In “Current Protocols in Molecular Biology (Ausubel et al., eds.; John Wiley & Sons, N.Y. 1995), which is incorporated herein by reference; see pages 9.7.12-9.7.21) using a Microlite ML2250 Microtiter plate luminometer (Dynatech Laboratories; Chantilly Va.).
In most experiments, a human growth hormone reporter plasmid, pCMVhGH (10 μg), was used as a control for transfection efficiency. pCMVhGH yielded a linear increase in activity upon transfection with 2 to 10 μg plasmid, where activity with 2 μg of plasmid was near the limit of sensitivity of the hGH assay, but activity with 5 to 10 μg was sufficiently above background to be accurately quantified.
The experimental design, wherein an aliquot of cells electroporated with a test plasmid is divided into two portions, one of which was exposed to TPA and the other of which was not, was selected because CMV-based plasmids are subject to induction by TPA. […] Luciferase activity in both portions of cells was normalized to hGH production (assayed in triplicate in the portion of the sample not exposed to TPA).

The subject of assay [2] is Mcl-1. As to the kind of experiment: Endogenous Mcl-1 expression in ML-1 cells exposed to inducers and inhibitors. Type of assay: cell-based, human.
Assay [3] deals with Mcl-1. The conditions noted are these: cited from earlier work.
For another assay, the system named is ML-1 cells. The settings on record: cited from earlier work.
In another assay the test system is Erk-1 and Erk-2. As to the kind of experiment: Phosphorylation state of MAP kinase proteins in ML-1 cells. Type of assay: cell-based, human.
A further assay has as its system Hela cells. As to the kind of experiment: Transient transfection cell death assay in Hela cells (β-gal marker, morphology scoring). Format: cell-based, human. How it is done:
Two types of expression constructs were prepared for use in transfection into mammalian cells. In one set of constructs, Mcl-1 or the Mcl-1s/ΔTM variant were expressed in the pCR3.1 vector; in the second set of constructs, Mcl-1 was fused to green fluorescent protein (GFP). The Mcl-1 RT-PCR reaction products from the F4/R4 primer pair reactions (SEQ ID NOS: 15 and 17, respectively; cloned in pCR3.1) were digested with KpnI (a KpnI site is present in the F4 primer; SEQ ID NO: 15) and HindIII, as was full length Mcl-1(Mcl-1 clone p3.2 in pBluescriptII SK); Kozopas et al., supra, 1993) and the resulting 5′ region of the cDNA was isolated and ligated into pCR3.1 to yield full length Mcl-1 and Mcl-1s/ΔM. […]
The pCR3.1-based Mcl-1 clones were transiently transfected into subconfluent monolayers of Hela cells in 12 well plates using SUPERFECT (Qiagen). […] Forty hr after transfection, cells were fixed, stained for β-gal activity, and analyzed microscopically to assess cell morphology. Transfection experiments were performed in a double blind manner and cells were scored either as having a normal, viable morphology (flat, healthy cells) or an abnormal morphology characteristic of dying cells (dense, rounded, detaching cells). All blue staining cells in each dish were counted and the results were expressed as percentages of cells with viable versus dying phenotypes.

On to `COc1cccc(-c2cc(=O)c3ccccc3o2)c1N` [PD 98059], for which, in assay [1] (K-562 cells, 1654 base pair reporter, PD 98059 prior to TPA exposure), the “decrease of TPA-induced luciferase activity” value is recorded as 78%. Further, the “effect on TPA-induced increase in luciferase activity” value in assay [1] (K-562 cells, FIG. 2C) is “substantially, but not completely, inhibited”. Besides, in assay [1] (K-562 transfected cells, absence of TPA), the “effect on basal luciferase activity” value is given as “caused a decline in basal activity”. The “effect on up-regulation of Mcl-1 expression by TPA, colchicine and vinblastine” value with Mcl-1 [2] (ML-1 cells) was “prevented”. The “basal Mcl-1 expression relative to value in the absence of PD 98059” value with Mcl-1 [3] (endogenously expressing cells, 8.5 hr assay period) is recorded as “about 25%”. In the assay with Mcl-1 [3] (endogenously expressing cells), the “induction of endogenous Mcl-1 by TPA in the presence of PD 98059” value was “about 3.5 fold”. Moreover, the values for the cell death entry in the assay with ML-1 cells (ERK inhibitor applied alone) and in the assay on ML-1 cells (ERK inhibitor applied in conjunction with TPA) were “not accompanied by cell death” and “cells died by apoptosis”, respectively.

Turning to `CCCCCCCCCCCCCC(=O)O[C@@H]1[C@@H](C)[C@@]2(O)[C@@H](C=C(CO)C[C@]3(O)C(=O)C(C)=C[C@@H]23)[C@@H]2C(C)(C)[C@]12OC(C)=O` [TPA, 12-O-tetradecanoylphorbol acetate], the “increase in reporter gene activity in response to TPA” value in assay [1] (162 bp segment of human Mcl-1 5′-flanking sequence) is on record as “approximately 10 fold”. For the same molecule, the “induction of luciferase activity by TPA” value in assay [1] (K-562 cells, Mcl-1-luciferase reporter constructs, test of cell lines) was “about 10 fold”; in assay [1] (p(−162)Mcl-1luc and p(−1663)Mcl-1luc, absence of pCMVhGH) it was “about 13.5 fold”; in assay [1] (p(−162)Mcl-1luc and p(−1663)Mcl-1luc, presence of pCMVhGH) it was “about 10.5 fold”. Moreover, the “increase in luciferase activity after treatment with TPA” value in assay [1] (K-562 cells, luciferase reporter driven by 1654 base pair segment of Mcl-1 5′ flanking region) is “approximately 8 fold”. The “increase in activity in the presence of TPA over reduced basal value” in assay [1] (K-562 cells, p(−107)Mcl-1luc and p(−51)Mcl-1luc) is “approximately 3.5 fold”. Further, the “induction by TPA” value in assay [1] (K-562 cells, p(−162)Mcl-1luc site mutation experiment (FIG. 3C)) is 9 fold. Besides, the “increase in luciferase activity in the presence of TPA” value in assay [1] (K-562 cells, p(−1656)Mcl-1luc) is recorded as “about 10 fold”. The “fold-induction by TPA” value in assay [1] (K-562 cells, wild-type plasmid, additional experiments) is “about 11 fold”. For the same molecule, in assay [1] (K-562 cells, ΔSRE/ΔEts plasmid), the “fold-induction by TPA above reduced basal value” is reported as “about 4 fold”. Further, the Mcl-1 expression result in the assay on Mcl-1 [2] (ML-1 cells) was “induced”. Besides, the “phosphorylation of Erk-1 and Erk-2” value with Erk-1 and Erk-2 is “increased phosphorylation”. Further, the “time at which increase in Mcl-1 mRNA is detectable” value in the assay with Mcl-1 [3] (ML-1 cells) is not above 1 h. In the assay with Mcl-1 [3] (ML-1 cells, within 1 day), the “Mcl-1 mRNA level relative to peak value” is listed as “about 50%”. In the assay with Mcl-1 [3] (TPA without ERK inhibitor), the “Mcl-1 level with TPA above low basal level” value is reported as approximately 10 fold.

Consider `COc1cc2c(c(OC)c1OC)-c1ccc(OC)c(=O)cc1[C@@H](NC(C)=O)CC2` [colchicine], for which the Mcl-1 expression entry in the assay on Mcl-1 [2] (ML-1 cells) was “induced”.

Regarding `CC(=O)O[C@H]1C(=O)[C@@]2(C)[C@H]([C@H](OC(=O)c3ccccc3)[C@]3(O)C[C@H](OC(=O)[C@H](O)[C@@H](NC(=O)c4ccccc4)c4ccccc4)C(C)=C1C3(C)C)[C@]1(OC(C)=O)CO[C@@H]1C[C@@H]2O` [paclitaxel], in the assay on Mcl-1 [2], the “effect of pretreatment on increase in Mcl-1 expression produced by TPA” value is listed as “not” and the “effect of pretreatment on increase in Mcl-1 expression produced by colchicine or vinblastine” value is on record as “blocked”.

For the molecule `CC[C@]1(O)C[C@@H]2CN(CCc3c([nH]c4ccccc34)[C@@](C(=O)OC)(c3cc4c(cc3OC)N(C)[C@H]3[C@@](O)(C(=O)OC)[C@H](OC(C)=O)[C@]5(CC)C=CCN6CC[C@]43[C@@H]65)C2)C1` [vinblastine], in the assay with Mcl-1 [2] (ML-1 cells), the Mcl-1 expression entry is “induced”.

B1: Mcl-1s/ΔTM: 271 amino acid pro-apoptotic Mcl-1 splice variant, SEQ ID NO: 3, exon 1 joined to exon 3 (protein, listed as Homo sapiens)
chain: MFGLKRNAVIGLNLYCGGAGLGAGSGGATRPGGRLLATEKEASARREIGGGEAGAVIGGSAGASPPSTLTPDSRRVARPPPIGAEVPDVTATPARLLFFAPTRRAAPLEEMEAPAADAIMSPEEELDGYEPEPLGKRPAVLPLLELVGESGNNTSTDGSLPSTPPPAEEEEDELYRQSLEIISRYLREQATGAKDTKPMGRSGATSRKALETLRRVGDGVQRNHETVFQGWVCGVLPCRGPRRWHQECAAGFCRCCWSRSWFGISNKIALL
With B1, the “killing of cells, quantitated by double blind scoring of blue staining cells” value with Hela cells was “as effective as Bax”.
